Laboratory results taken from ChEMBL document CHEMBL1149601, “Molecular design, chemical synthesis, and biological evaluation of '4-1' pentacyclic aryl/heteroaryl-imidazonaphthalimides” (Bioorg Med Chem, 2007).

Assays:
SMMC-7721 = experiment: Growth inhibition of human SMMC7721 cells by MTT assay; type: functional, cell-based
HL-60 = experiment: Growth inhibition of human HL60 cells by MTT assay; type: functional, cell-based
DNA = experiment: Binding affinity to calf thymus DNA; type: nucleic-acid assay; conditions: Bos taurus
P388 = experiment: Growth inhibition of mouse P388 cells by MTT assay; type: functional, cell-based
A549 = experiment: Growth inhibition of human A549 cells by SRB assay; type: functional, cell-based
HeLa = experiment: Growth inhibition of human HeLa cells by MTT assay; type: functional, cell-based

Row | SMILES | IC50 (SMMC-7721) [nM] | IC50 (HL-60) [nM] | ΔTm (DNA) [°C] | IC50 (P388) [nM] | IC50 (A549) [nM] | IC50 (HeLa) [nM]
1 | COc1cc(-c2nc3c(cc4c5c(cccc53)C(=O)N(CCN(C)C)C4=O)[nH]2)ccc1O | > 100000 | 50500 | 7.8 | 1920 | 5080 | > 100000
2 | CN(C)CCN1C(=O)c2cccc3c2c(cc2[nH]c(-c4ccc(N(C)C)cc4)nc23)C1=O | 2860 | 1080 | 12.1 | 1680 | 8500 | 250
3 | CN(C)CCN1C(=O)c2cccc3c2c(cc2[nH]c(-c4ccc(C(F)(F)F)cc4)nc23)C1=O | 1630 | 4900 | 4.8 | 710 | 26200 | 400
4 | CN(C)CCN1C(=O)c2cccc3c2c(cc2[nH]c(-c4ccc(O)cc4)nc23)C1=O | > 100000 | 23000 | 6.3 | 1100 | 17800 | 13100
5 | CCOc1ccc(-c2nc3c(cc4c5c(cccc53)C(=O)N(CCN(C)C)C4=O)[nH]2)cc1 | 1020 | 4580 | 10.5 | 2480 | 14700 | 520
6 | COc1ccc(-c2nc3c(cc4c5c(cccc53)C(=O)N(CCN(C)C)C4=O)[nH]2)cc1OC | 220 | 10400 | 13.3 | 1070 | 600 | 5190
7 | Cc1ccc(-c2nc3c(cc4c5c(cccc53)C(=O)N(CCN(C)C)C4=O)[nH]2)cc1 | 580 | 1040 | 6.6 | 5500 | 5530 | 320
8 | CN(C)CCN1C(=O)c2cccc3c2c(cc2[nH]c(-c4ccc(Cl)cc4)nc23)C1=O | 270 | 3280 | 7.1 | 950 | 9130 | 280
9 | COc1ccc(-c2nc3c(cc4c5c(cccc53)C(=O)N(CCN(C)C)C4=O)[nH]2)cc1 | 1350 | 460 | 7 | 3720 | 2160 | 210
10 | CN(C)CCN1C(=O)c2cccc3cc(N)cc(c23)C1=O [AMONAFIDE] | 4150 | 1630 |  | 4560 | 13000 | 1400

Results, then the compound that gave them:

Row | IC50 (SMMC-7721) [nM] | IC50 (HL-60) [nM] | ΔTm (DNA) [°C] | IC50 (P388) [nM] | IC50 (A549) [nM] | IC50 (HeLa) [nM] | SMILES
11 | 1760 | 2660 | 4.8 | 5650 | 60900 | 5350 | CN(C)CCN1C(=O)c2cccc3c2c(cc2[nH]c(-c4ccncc4)nc23)C1=O
12 | 2900 | 3660 | 6.2 | 210 | 410 | 7980 | CN(C)CCN1C(=O)c2cccc3c2c(cc2[nH]c(-c4cccn4C)nc23)C1=O
13 | 2990 | 3030 | 5.7 | 210 | 450 | 3300 | CN(C)CCN1C(=O)c2cccc3c2c(cc2[nH]c(-c4ccc[nH]4)nc23)C1=O
14 | 880 | 5210 | 6.7 | 710 | 7480 | 13900 | CN(C)CCN1C(=O)c2cccc3c2c(cc2[nH]c(-c4ccoc4)nc23)C1=O
15 | 3360 | 860 | 7.2 | 860 | 7540 | 400 | CN(C)CCN1C(=O)c2cccc3c2c(cc2[nH]c(-c4ccccc4)nc23)C1=O
16 | 3360 | 300 | 3.8 | 770 | 9330 | 2710 | CN(C)CCN1C(=O)c2cccc3c2c(cc2[nH]c(-c4ccccn4)nc23)C1=O
17 | 930 | 580 | 8.4 | 160 | 8590 | 540 | CN(C)CCN1C(=O)c2cccc3c2c(cc2[nH]c(-c4ccsc4)nc23)C1=O
18 | 1290 | 1330 | 4 | 2310 | 9970 | 1160 | CN(C)CCN1C(=O)c2cccc3c2c(cc2[nH]c(-c4cccnc4)nc23)C1=O
19 | 1300 | 6240 | 6.8 | 650 | 7230 | 1730 | CN(C)CCN1C(=O)c2cccc3c2c(cc2[nH]c(-c4ccco4)nc23)C1=O
20 | 3270 | 590 | 6.9 | 4150 | 6670 | 1340 | CN(C)CCN1C(=O)c2cccc3c2c(cc2[nH]c(-c4cccs4)nc23)C1=O
